system: HCV replicon cells; assay: Cell-based HCV replicon assay (replicon RNA level by real time PCR, Taqman); conditions: Hepatitis C virus, 72 h, HCV replicon cells, harvested day 3, replicon RNA by real time PCR; reported as range class; read-out: EC90 (μM) range
Procedure, shortened: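 Readout: ΔCT between NS5B replicon RNA and GAPDH by real-time RT-PCR in lysates harvested on day 3, fitted sigmoidally; EC50 at ΔCT=1, EC90 at ΔCT=3.2. Compounds tested at ten 2-fold dilutions from 25 μM to 1 μM start, 10% FBS, 0.5% DMSO.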

SMILES | EC90 [µM]
Nc1nc(Cl)c(-c2cc3cnc(=O)[nH]c3o2)c(N[C@@H]2C[C@H](CO)[C@@H](O)[C@H]2O)n1 [Example 307] | > 5
CCc1nccc2cc(-c3c(Cl)nc(N)nc3N[C@@H]3C[C@H](CO)[C@@H](O)[C@H]3O)oc12 [Example 308] | < 0.5
CCc1cc2cc(-c3c(Cl)nc(N)nc3N[C@@H]3C[C@H](CO)[C@@H](O)[C@H]3O)oc2c(C)n1 [Example 309] | < 0.5
COCc1cc2cc(-c3c(Cl)nc(N)nc3N[C@@H]3C[C@H](CO)[C@@H](O)[C@H]3O)oc2cn1 [Example 310] | < 0.5
COCc1cc2cc(-c3c(Cl)nc(N)nc3N[C@@H]3C[C@H](CO)[C@@H](O)[C@H]3O)oc2c(C)n1 [Example 311] | < 0.5
CCCc1cc2cc(-c3c(Cl)nc(NC)nc3N[C@@H]3C[C@H](CO)[C@@H](O)[C@H]3O)oc2c(C)n1 [Example 312] | < 0.5
Cc1nc(N(C)C)nc(N[C@@H]2C[C@H](CO)[C@@H](O)[C@H]2O)c1-c1nc2ccccc2s1 [Example 313] | < 0.5
CCc1nc(N(C)C)nc(N[C@@H]2C[C@H](CO)[C@@H](O)[C@H]2O)c1-c1nc2ccccc2s1 [Example 314] | > 5
CCN(C)c1nc(Cl)c(-c2nc3ccccc3s2)c(N[C@@H]2C[C@H](CO)[C@@H](O)[C@H]2O)n1 [Example 318] | < 0.5
CNc1nc(C)c(-c2nc3ccccc3s2)c(N[C@@H]2C[C@H](CO)[C@@H](O)[C@H]2O)n1 [Example 319] | < 0.5
CC(C)CNc1nc(Cl)c(-c2nc3ccccc3s2)c(N[C@@H]2C[C@H](CO)[C@@H](O)[C@H]2O)n1 [Example 320] | < 0.5
Cc1cc2cc(-c3c(Cl)nc(N)nc3N[C@@H]3C[C@H](CO)[C@@H](O)[C@H]3O)oc2c(C)n1 [Example 401] | < 0.5
Nc1nc(Cl)c(-c2cc3cncnc3o2)c(N[C@@H]2C[C@H](CO)[C@@H](O)[C@H]2O)n1 [Example 402] | > 5
CNc1nc(Cl)c(-c2nc3ccccc3s2)c(N[C@@H]2C[C@H](CO)[C@@H](O)[C@H]2O)n1 [Example 403] | < 0.5
CNc1nc(Cl)c(-c2nc3ccccc3s2)c(N(C)[C@@H]2C[C@H](CO)[C@@H](O)[C@H]2O)n1 [Example 404] | > 5
CCc1cc2cc(-c3c(Cl)nc(N)nc3N[C@@H]3C[C@H](CO)[C@@H](O)[C@H]3O)oc2cn1 [Example 406] | < 0.5
CCc1cc2cc(-c3c(Cl)nc(N)nc3N[C@@H]3C[C@H](CO)[C@@H](O)[C@H]3O)oc2c(CC)n1 [Example 407] | < 0.5
CN(C)c1nc(Cl)c(-c2nc3ccccc3s2)c(N[C@@H]2C[C@H](CO)[C@@H](O)[C@H]2O)n1 [Example 408] | < 0.5
CCCc1cc2cc(-c3c(Cl)nc(N)nc3N[C@@H]3C[C@H](CO)[C@@H](O)[C@H]3O)oc2cn1 [Example 410] | < 0.5
CCN(CC)c1nc(Cl)c(-c2nc3ccccc3s2)c(N[C@@H]2C[C@H](CO)[C@@H](O)[C@H]2O)n1 [Example 411] | 0.5 to 5
CCNc1nc(Cl)c(-c2nc3ccccc3s2)c(N[C@@H]2C[C@H](CO)[C@@H](O)[C@H]2O)n1 [Example 412] | < 0.5
OC[C@H]1C[C@@H](Nc2nc(N3CCC3)nc(Cl)c2-c2nc3ccccc3s2)[C@H](O)[C@@H]1O [Example 413] | 0.5 to 5
CN(C)c1nc(N[C@@H]2C[C@H](CO)[C@@H](O)[C@H]2O)c(-c2nc3ccccc3s2)c(-c2ccccc2)n1 [Example 414] | > 5
CN(C)c1nc(N[C@@H]2C[C@H](CO)[C@@H](O)[C@H]2O)c(-c2nc3ccccc3s2)c(-c2cccs2)n1 [Example 415] | > 5

same assay, conditions: Hepatitis C virus, 72 h, HCV replicon cells, harvested on day 3, replicon RNA by real time PCR; calculated EC90 reported as range class; read-out: EC90 (μM) range

SMILES | EC90 [µM]
OC[C@H]1C[C@@H](Nc2nc(NCC3CCCCC3)nc(Cl)c2-c2nc3ccccc3s2)[C@H](O)[C@@H]1O [Example 322] | < 0.5
Cc1nc(NCC2CCCCC2)nc(N[C@@H]2C[C@H](CO)[C@@H](O)[C@H]2O)c1-c1nc2ccccc2s1 [Example 323] | < 0.5
Cc1nc(S(C)(=O)=O)nc(N[C@@H]2C[C@H](CO)[C@@H](O)[C@H]2O)c1-c1nc2ccccc2s1 [Example 324] | > 5
Cc1nc(NCC2CCCO2)nc(N[C@@H]2C[C@H](CO)[C@@H](O)[C@H]2O)c1-c1nc2ccccc2s1 (stereo partly shown) [Example 325] | < 0.5
CSc1nc(C)c(-c2nc3ccccc3s2)c(N[C@@H]2C[C@H](CO)[C@@H](O)[C@H]2O)n1 [Example 326] | 0.5 to 5
CCCCCNc1nc(C)c(-c2nc3ccccc3s2)c(N[C@@H]2CC[C@@H](O)[C@H]2O)n1 [Example 327] | < 0.5
Cc1nc(NCc2cccs2)nc(N[C@@H]2C[C@H](CO)[C@H]3OC(C)(C)O[C@H]32)c1-c1nc2ccccc2s1 [Example 328] | < 0.5
Cc1nc(NCc2cccs2)nc(N[C@@H]2C[C@H](CO)[C@@H](O)[C@H]2O)c1-c1nc2ccccc2s1 [Example 329] | < 0.5
Cc1nc(NCc2ccsc2)nc(N[C@@H]2C[C@H](CO)[C@@H](O)[C@H]2O)c1-c1nc2ccccc2s1 [Example 331] | < 0.5
CCCCCNc1nc(C)c(-c2nc3ccccc3s2)c(N[C@@H]2CC[C@H]3OC4(CCCCC4)O[C@@H]23)n1 [Example 332] | > 5
Cc1nc(NCc2cccs2)nc(N[C@@H]2CC[C@H]3OC4(CCCCC4)O[C@@H]23)c1-c1nc2ccccc2s1 [Example 334] | > 5
Cc1nc(NCc2cccs2)nc(N[C@@H]2C[C@H](C)[C@H]3OC4(CCCCC4)O[C@H]32)c1-c1nc2ccccc2s1 [Example 335] | > 5
Cc1nc(NCc2cccs2)nc(N[C@@H]2CC[C@@H](O)[C@H]2O)c1-c1nc2ccccc2s1 [Example 336] | < 0.5
Cc1nc(NCc2cccs2)nc(N[C@@H]2C[C@H](C)[C@@H](O)[C@H]2O)c1-c1nc2ccccc2s1 [Example 337] | < 0.5
COCc1cc2cc(-c3c(C)nc(NCc4nccs4)nc3N[C@@H]3C[C@H](CO)[C@H]4OC(C)(C)O[C@H]43)oc2cn1 [Example 339] | < 0.5
COCc1cc2cc(-c3c(C)nc(NCc4nccs4)nc3N[C@@H]3C[C@H](CO)[C@@H](O)[C@H]3O)oc2cn1 [Example 340] | < 0.5
CCc1cc2cc(-c3c(C)nc(NCc4nccs4)nc3N[C@@H]3C[C@H](CO)[C@H]4OC(C)(C)O[C@H]43)oc2cn1 [Example 341] | < 0.5
CCc1cc2cc(-c3c(C)nc(NCc4nccs4)nc3N[C@@H]3C[C@H](CO)[C@@H](O)[C@H]3O)oc2cn1 [Example 342] | < 0.5
CCc1cc2cc(-c3c(C)nc(NCc4ccccn4)nc3N[C@@H]3C[C@H](CO)[C@H]4OC(C)(C)O[C@H]43)oc2cn1 [Example 343] | > 5
CCc1cc2cc(-c3c(C)nc(NCc4ccccn4)nc3N[C@@H]3C[C@H](CO)[C@@H](O)[C@H]3O)oc2cn1 [Example 344] | < 0.5

SMILES | EC90 [µM]
CCc1cc2cc(-c3c(C)nc(NCc4cc(OC)cc(OC)c4)nc3N[C@@H]3C[C@H](CO)[C@H]4OC(C)(C)O[C@H]43)oc2cn1 [Example 345] | < 0.5
CCc1cc2cc(-c3c(C)nc(NCc4cc(OC)cc(OC)c4)nc3N[C@@H]3C[C@H](CO)[C@@H](O)[C@H]3O)oc2cn1 [Example 346] | < 0.5
COc1cc(CNc2nc(C)c(-c3cc4cc(OC)nc(C)c4o3)c(N[C@@H]3C[C@H](CO)[C@H]4OC(C)(C)O[C@H]43)n2)cc(OC)c1 [Example 347] | < 0.5
COc1cc(CNc2nc(C)c(-c3cc4cc(OC)nc(C)c4o3)c(N[C@@H]3C[C@H](CO)[C@@H](O)[C@H]3O)n2)cc(OC)c1 [Example 348] | < 0.5
COc1cc2cc(-c3c(C)nc(NCc4ccccn4)nc3N[C@@H]3C[C@H](CO)[C@H]4OC(C)(C)O[C@H]43)oc2c(C)n1 [Example 349] | 0.5 to 5
CN(C)c1nc(N[C@@H]2C[C@H](CO)[C@@H](O)[C@H]2O)c(-c2nc3ccccc3s2)c(C2CC2)n1 [Example 416] | 0.5 to 5
CCCNc1nc(Cl)c(-c2nc3ccccc3s2)c(N[C@@H]2C[C@H](CO)[C@@H](O)[C@H]2O)n1 [Example 419] | < 0.5
Cc1cc2cc(-c3c(Cl)nc(N(C)C)nc3N[C@@H]3C[C@H](CO)[C@@H](O)[C@H]3O)oc2c(C)n1 [Example 420] | > 5
CCCNc1nc(C)c(-c2nc3ccccc3s2)c(N[C@@H]2C[C@H](CO)[C@@H](O)[C@H]2O)n1 [Example 422] | < 0.5
OC[C@H]1C[C@@H](Nc2nc(NC3CCOCC3)nc(Cl)c2-c2nc3ccccc3s2)[C@H](O)[C@@H]1O [Example 424] | < 0.5
Cc1nc(NC2CCOCC2)nc(N[C@@H]2C[C@H](CO)[C@@H](O)[C@H]2O)c1-c1nc2ccccc2s1 [Example 425] | < 0.5
CC(C)Nc1nc(Cl)c(-c2nc3ccccc3s2)c(N[C@@H]2C[C@H](CO)[C@@H](O)[C@H]2O)n1 [Example 426] | < 0.5
Cc1nc(NC(C)C)nc(N[C@@H]2C[C@H](CO)[C@@H](O)[C@H]2O)c1-c1nc2ccccc2s1 [Example 427] | < 0.5
CC(C)(C)Nc1nc(Cl)c(-c2nc3ccccc3s2)c(N[C@@H]2C[C@H](CO)[C@@H](O)[C@H]2O)n1 [Example 428] | < 0.5
Cc1nc(NC(C)(C)C)nc(N[C@@H]2C[C@H](CO)[C@@H](O)[C@H]2O)c1-c1nc2ccccc2s1 [Example 429] | < 0.5
OC[C@H]1C[C@@H](Nc2nc(NCc3ccccc3)nc(Cl)c2-c2nc3ccccc3s2)[C@H](O)[C@@H]1O [Example 430] | < 0.5
Cc1nc(NCc2ccccc2)nc(N[C@@H]2C[C@H](CO)[C@@H](O)[C@H]2O)c1-c1nc2ccccc2s1 [Example 431] | < 0.5
CCCCNc1nc(Cl)c(-c2nc3ccccc3s2)c(N[C@@H]2C[C@H](CO)[C@@H](O)[C@H]2O)n1 [Example 432] | < 0.5
CCCCCNc1nc(Cl)c(-c2nc3ccccc3s2)c(N[C@@H]2C[C@H](CO)[C@@H](O)[C@H]2O)n1 [Example 433] | < 0.5
CCCCNc1nc(C)c(-c2nc3ccccc3s2)c(N[C@@H]2C[C@H](CO)[C@@H](O)[C@H]2O)n1 [Example 434] | < 0.5
